Data on 16 compounds can be found in patent publication US20030109523A1, “Bicyclic antagonists selective for the alphavbeta3 integrin” (Wyeth, priority 1999, published 2003).

Structures can show the parent of a compound that is named as a salt.

The target in data set [1] is T1, Vitronectin Receptor (αVβ3) (Homo sapiens, UniProt P05106+P06756).
T1 construct: expressed in transfected cells; host or cells: 512P5 cells (plasma membrane preparation)
Briefly: Vitronectin Receptor (αVβ3) Binding Test Procedure. The note with it: for IC50: read-out: (αVβ3) IC50 RECEPTOR BINDING; for remaining activity at 30 µM: % Max = percentage of the specific binding, read-out: (αVβ3) RECEPTOR BINDING, % @ concentration.

The target in the next data set is T2, αVβ3 integrin (Homo sapiens, UniProt P05106+P06756).
T2 construct: αVβ3-expressing cell lines are maintained by standard tissue culture techniques; endogenous in cells; host or cells: αVβ3-expressing cell lines
Briefly: Osteopontin-αVβ3 Cell Attachment Test Procedure. Type of data set: cell-based. The note with it: for IC50: attachment of cells to osteopontin, read-out: (αVβ3) IC50 CELL ATTACHMENT; for remaining activity at 20 µM / remaining activity at 100 µM: % of maximal attachment, read-out: (αVβ3) CELL ATTACHMENT, % @ concentration. As to the method:
Osteopontin-αVβ3 Cell Attachment Test Procedure
Measuring the effect of compounds on the RGD-dependent attachment of cells to osteopontin mediated by the αVβ3 integrin.
Following incubation the wells were aspirated and washed once with D-PBS; plates can either be used immediately or stored for up to 1 week at 4° C. Prior to assay, the wells were blocked with 1% bovine serum albumin (BSA) in cell suspension media for 1 hour at 37° C. Following the blocking period, wells were aspirated and washed once with D-PBS.
αVβ3-expressing cell lines are maintained by standard tissue culture techniques. […] The cells were pelleted by low-speed centrifugation and washed three times with 0.5 mg/mL trypsin inhibitor in D-PBS (Sigma). The final cell pellet was resuspended in cell suspension media at a concentration of 10^6 cells/mL.
Incubation: 100 μL of diluted test compound was added to osteopontin-coated wells (in triplicate) followed by 100 μL of cell suspension; background cell attachment was determined in uncoated wells. The plate was incubated at 25° C. in a humidified air atmosphere for 1.5 hours. Following the incubation period, the wells were gently aspirated and washed once with D-PBS.
Cell Number Detection: The number of cells attached was determined by an MTT dye conversion assay (Promega) according to the manufacturer's instructions. Briefly, MTT dye was diluted in cell suspension media (15:85) and 100 μL was added to each well. […] The assay plates were covered and incubated at 37° C. in a humidified air atmosphere overnight.
The individual well optical density was expressed as a percentage of the maximal attachment (% Max) wells minus background attachment, and reported as the mean ±standard deviation.

Another data set concerns osteoclasts. Nature of the data set: Osteoclast Bone Pitting. Type of data set: cell-based, rat. The note with it: Rattus norvegicus, Osteoclast. As to the method:
Osteoclast Bone Pitting The test procedure was conducted as described by R. J. Murrills and D. W. […] At this pH the adherent osteoclasts excavate an adequate number of resorption pits for assay purposes. Slices were fixed in 2.5% glutaraldehyde and osteoclasts counted following tartrate-resistant acid phosphatase staining. […] All cells were stripped from the slice by sonication on 0.25M NH4OH and the resorption pits formed by the osteoclasts during the experiment stained with toluidine blue. Resorption pits were quantified by manually counting. The experiments were conducted according to a block design with osteoclasts from each animal exposed to each treatment. Three replicate slices were used per treatment per animal, such that a total of 96 slices were examined for an experiment involving four animals and eight treatments (including control). Several parameters were recorded on a “per slice” basis: number of pits, number of osteoclasts, number of pits per osteoclast, number of fibroblast-like bone cells. SAS or JMP statistical software were used for statistical analysis. […] IC50s were calculated using dose-response curves.

For a further data set, the target named is T3, αIIbβ3 integrin (Homo sapiens, UniProt P05106+P08514).
T3 construct: Human Platelets: Platelet-enriched plasma was obtained commercially from a donor pool; from tissue; host or cells: human platelet-rich plasma from a commercial donor pool
Briefly: ADP-Induced Platelet Aggregation. Type of data set: cell-based. The note with it: Table VII; for remaining activity at 200 µM: percent of maximal aggregation; for IC50: ADP 20 uM, human platelets, read-out: Platelet Aggregation αIIbβ3 IC50. As to the method:
Measurement of the Effect of Compounds on ADP-Induced Platelet Aggregation
Measuring the effect of compounds on ADP-induced platelet aggregation mediated by a fibrinogen-αIIbβ3 integrin interaction.
Human Platelets: Platelet-enriched plasma was obtained commercially from a donor pool. The plasma was tested prior to shipment and found to be negative for HIV, HCV and Hepatitis B. Platelet-rich plasma (PRP) was obtained by diluting plasma to an approximate final concentration of 3×10(6) platelets per mL in platelet poor plasma (PPP). PPP was the supernatant of a lowspeed centrifugation of plasma.
Adenosine diphosphate (ADP): ADP was obtained commercially and diluted to 1 mM (stock solution) in distilled, deionized water (ddH2O).
Incubation: PRP and PPP were prewarmed in a water bath at 37° C. […] PRP plus sample compound in a final volume of 500 uL was added to a pre-warmed cuvette in a ChronoLog aggregometer. A control containing PRP and 5 uL of vehicle was treated similarly to the test cuvette; final vehicle concentration was 1%. The two cuvettes were incubated with stirring (1000 rpm) at 37° C. for 5 minutes. Five hundred microliters of PPP was used as a reference (100% aggregation).
Aggregation: To begin the test, ADP was added yielding a final concentration of 20 uM to both samples (plus and minus sample compound). Light transmittance was monitored continuously and compared to the reference cuvette. After five minutes, the test was terminated and the slope and maximal amplitude of the resulting aggregation plot was calculated by the aggregometer.
The percent of maximal aggregation is the ratio of the maximal aggregations of the sample cuvette to the control multiplied by 100 (% Max) and reported as the mean+−standard deviation.

T2 sequence (P06756 31-889 limits assumed): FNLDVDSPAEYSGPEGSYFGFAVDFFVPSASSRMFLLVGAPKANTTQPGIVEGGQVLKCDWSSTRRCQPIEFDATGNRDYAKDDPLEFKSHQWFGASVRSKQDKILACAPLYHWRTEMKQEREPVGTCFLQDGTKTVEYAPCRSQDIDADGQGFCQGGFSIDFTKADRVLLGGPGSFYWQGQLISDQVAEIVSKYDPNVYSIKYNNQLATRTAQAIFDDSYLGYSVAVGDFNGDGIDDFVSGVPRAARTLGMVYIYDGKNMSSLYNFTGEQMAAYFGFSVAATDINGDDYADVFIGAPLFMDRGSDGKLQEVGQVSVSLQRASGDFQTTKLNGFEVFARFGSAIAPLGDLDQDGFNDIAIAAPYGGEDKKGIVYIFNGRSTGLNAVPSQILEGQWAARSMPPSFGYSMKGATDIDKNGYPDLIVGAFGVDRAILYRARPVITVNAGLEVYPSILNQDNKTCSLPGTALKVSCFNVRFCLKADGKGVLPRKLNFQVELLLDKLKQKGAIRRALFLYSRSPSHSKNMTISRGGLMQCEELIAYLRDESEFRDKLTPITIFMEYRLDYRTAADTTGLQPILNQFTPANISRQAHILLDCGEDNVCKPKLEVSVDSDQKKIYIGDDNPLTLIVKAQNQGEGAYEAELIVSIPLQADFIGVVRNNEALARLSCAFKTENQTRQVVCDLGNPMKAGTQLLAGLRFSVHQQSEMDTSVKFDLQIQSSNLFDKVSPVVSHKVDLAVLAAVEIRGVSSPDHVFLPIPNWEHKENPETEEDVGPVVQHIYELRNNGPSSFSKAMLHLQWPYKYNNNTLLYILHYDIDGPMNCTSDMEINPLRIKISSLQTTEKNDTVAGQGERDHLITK
T2 sequence (P06756 891-1048 partner limits assumed): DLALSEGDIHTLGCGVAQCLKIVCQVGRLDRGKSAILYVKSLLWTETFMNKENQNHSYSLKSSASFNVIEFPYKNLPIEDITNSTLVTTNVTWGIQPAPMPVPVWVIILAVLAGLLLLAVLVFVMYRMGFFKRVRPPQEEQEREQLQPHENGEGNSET
T2 sequence (P05106 27-788): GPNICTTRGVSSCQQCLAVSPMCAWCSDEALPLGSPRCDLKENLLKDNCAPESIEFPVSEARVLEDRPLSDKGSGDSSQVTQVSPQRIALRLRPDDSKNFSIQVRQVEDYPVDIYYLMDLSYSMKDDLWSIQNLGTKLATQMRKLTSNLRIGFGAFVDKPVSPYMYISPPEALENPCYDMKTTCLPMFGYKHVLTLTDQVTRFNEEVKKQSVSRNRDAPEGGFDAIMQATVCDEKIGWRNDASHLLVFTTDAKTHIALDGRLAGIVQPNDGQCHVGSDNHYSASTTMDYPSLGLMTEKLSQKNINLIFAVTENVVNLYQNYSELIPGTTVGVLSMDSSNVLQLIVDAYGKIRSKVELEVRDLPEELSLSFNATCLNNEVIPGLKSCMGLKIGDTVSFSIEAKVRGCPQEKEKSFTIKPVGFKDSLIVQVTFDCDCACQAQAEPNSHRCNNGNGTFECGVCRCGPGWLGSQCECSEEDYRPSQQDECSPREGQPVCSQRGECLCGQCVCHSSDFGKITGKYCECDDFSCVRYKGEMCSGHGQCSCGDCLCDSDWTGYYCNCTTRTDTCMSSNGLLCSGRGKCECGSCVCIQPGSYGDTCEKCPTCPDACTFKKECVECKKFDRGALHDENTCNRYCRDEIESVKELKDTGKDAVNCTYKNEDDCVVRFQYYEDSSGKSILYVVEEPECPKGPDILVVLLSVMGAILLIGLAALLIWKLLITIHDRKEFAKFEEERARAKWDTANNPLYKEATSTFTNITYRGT
T1 sequence (P06756 31-889 limits assumed): as the sequence (P06756 31-889 limits assumed) above
T1 sequence (P06756 891-1048 partner limits assumed): as the sequence (P06756 891-1048 partner limits assumed) above
T1 sequence (P05106 27-788): as the sequence (P05106 27-788) above
T3 sequence (P08514 32-887 limits assumed): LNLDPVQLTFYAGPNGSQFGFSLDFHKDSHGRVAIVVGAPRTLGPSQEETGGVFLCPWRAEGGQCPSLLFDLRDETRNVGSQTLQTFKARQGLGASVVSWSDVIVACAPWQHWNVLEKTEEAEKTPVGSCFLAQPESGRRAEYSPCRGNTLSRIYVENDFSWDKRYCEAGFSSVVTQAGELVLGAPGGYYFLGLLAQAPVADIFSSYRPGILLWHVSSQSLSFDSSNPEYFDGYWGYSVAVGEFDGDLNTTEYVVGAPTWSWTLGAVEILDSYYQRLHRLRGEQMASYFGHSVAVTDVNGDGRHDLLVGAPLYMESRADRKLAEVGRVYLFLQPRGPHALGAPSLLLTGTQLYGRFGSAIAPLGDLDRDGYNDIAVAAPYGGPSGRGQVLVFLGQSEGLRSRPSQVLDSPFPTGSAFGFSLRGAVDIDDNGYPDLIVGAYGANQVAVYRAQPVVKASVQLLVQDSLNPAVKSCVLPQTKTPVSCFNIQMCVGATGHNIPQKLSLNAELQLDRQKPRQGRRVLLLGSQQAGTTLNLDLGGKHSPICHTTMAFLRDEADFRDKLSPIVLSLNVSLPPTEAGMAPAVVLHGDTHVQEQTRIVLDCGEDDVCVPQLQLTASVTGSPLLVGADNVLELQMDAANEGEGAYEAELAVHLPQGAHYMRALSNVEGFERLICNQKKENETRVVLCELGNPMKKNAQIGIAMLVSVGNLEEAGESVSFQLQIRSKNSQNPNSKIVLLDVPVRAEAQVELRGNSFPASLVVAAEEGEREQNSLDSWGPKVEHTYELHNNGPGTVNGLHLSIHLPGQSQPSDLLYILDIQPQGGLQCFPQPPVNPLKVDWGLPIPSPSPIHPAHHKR
T3 sequence (P08514 891-1039 partner limits assumed): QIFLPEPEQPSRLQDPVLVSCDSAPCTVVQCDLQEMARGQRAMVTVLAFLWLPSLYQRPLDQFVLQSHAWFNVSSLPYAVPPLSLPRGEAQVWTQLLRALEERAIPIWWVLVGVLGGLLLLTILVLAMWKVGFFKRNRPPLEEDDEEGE
T3 sequence (P05106 27-788): as the sequence (P05106 27-788) above

In general, IC50 refers to the point on the concentration scale where inhibition reaches its midpoint. A word on the inhibition: it is the drop in the measured response relative to a control, in per cent. For orientation: melting point means the temperature, or range, at which the solid turns liquid. `N=C(N)NCCCCOc1ccc2c(c1)NC(=O)C(CC(=O)O)C2.O=C(O)C(F)(F)F` (stereo not shown) [Example 84, [7-(4-Guanidino-butoxy)-2-oxo-1,2,3,4-tetrahydro-quinolin-3-yl]-acetic Acid Trifluoroacetate] returned a melting point of 189 to 191 °C. Besides, in data set [1], the IC50 came to 11.4 µM. In addition, the half-maximal inhibitory concentration (IC50) at αVβ3 integrin amounted to 24.5 µM. For the same compound, the inhibition at 223 µM in the data set on osteoclasts (@ 223 μM) stood at 57%. The remaining activity at 200 µM at αIIbβ3 integrin is 62%.

As for `N=C(N)NCCCCCc1ccc2c(c1)NC(=O)C(CC(=O)O)C2.O=C(O)C(F)(F)F` (stereo not shown) [Example 122, [7-(5-Guanidino-pentyl)-2-oxo-1,2,3,4-tetrahydro-quinolin-3-yl]-acetic Acid Trifluoroacetate], the melting point lay within 148 to 151 °C. Moreover, in data set [1], the IC50 amounted to 3.6 µM. In addition, at αVβ3 integrin, the 50% inhibitory concentration (IC50) turned out to be 8.3 µM. Further, in the data set with osteoclasts (read-out: BONE PITTING INHIBITION IC50), the half-maximal inhibitory concentration (IC50) stood at 159 µM. Further, on αIIbβ3 integrin, the IC50 was 57 µM.

`N=C(N)NCCCOc1ccc2c(c1)CCCC(CC(=O)O)C2.O=C(O)C(F)(F)F` (stereo not shown) [Example 62, [2-(3-Guanidino-propoxy)-6,7,8,9-tetrahydro-5H-benzocyclohepten-6-yl]-acetic Acid Trifluoroacetate] gave a melting point of 109 to 114 °C. Moreover, in data set [1], the IC50 was 1.4 µM. For the same compound, the half-maximal inhibitory concentration (IC50) at αVβ3 integrin worked out at 14 µM. Moreover, the IC50 at αIIbβ3 integrin is 169 µM.

For the compound `CCN1C(=O)C(CC(=O)O)Cc2ccc(OCCCNC(=N)N)cc21.O=C(O)C(F)(F)F` (stereo not shown) [Example 158, [1-Ethyl-7-(3-guanidino-propoxy)-2-oxo-1,2,3,4-tetrahydro-quinolin-3-yl]-acetic Acid Trifluoroacetate], the melting point lay within 165 to 166 °C. In addition, the inhibition at 216 µM in the data set on osteoclasts (@ 216 μM) stood at 13%.

In the case of `N=C(N)NCCCOc1ccc2cc(CC(=O)O)c(=O)[nH]c2c1.O=C(O)C(F)(F)F` [Example 186, [7-(3-Guanidino-propoxy)-2-oxo-1,2-dihydro-quinolin-3-yl]-acetic Acid Trifluoroacetate], the melting point was in the range of 195 to 198 °C. Also, on αVβ3 integrin, the remaining activity at 20 µM was 113% and the remaining activity at 100 µM was 68.9%.

`N=C(N)NCCCCOc1cccc2c1NC(=O)C(CC(=O)O)C2` (stereo not shown) [Example 235, [8-(4-Guanidino-butoxy)-2-oxo-1,2,3,4-tetrahydro-quinolin-3-yl]-acetic Acid] yielded a melting point of 207 to 210 °C. Besides, the remaining activity at 30 µM in data set [1] is 100%. For the same compound, the remaining activity at 100 µM at αVβ3 integrin was 91%. For the same compound, the inhibition at 221 µM in the data set on osteoclasts (@ 221 μM) was -50%. Moreover, the remaining activity at 200 µM on αIIbβ3 integrin worked out at 81.1%.

`N=C(N)NCCCC=Cc1ccc2c(c1)NC(=O)C(CC(=O)O)C2.O=C(O)C(F)(F)F` (stereo not shown) [Example 113, [7-(5-Guanidino-pent-1-enyl)-2-oxo-1,2,3,4-tetrahydro-quinolin-3-yl]-acetic Acid Trifluoroacetate] had a melting point of 162 to 165 °C. The IC50 in data set [1] was found to be 4 µM. Moreover, the concentration for half-maximal inhibition (IC50) on αVβ3 integrin came out at 17.8 µM. Moreover, the remaining activity at 200 µM at αIIbβ3 integrin worked out at 77.1%.

As to `N=C(N)NCCCOc1ccc2c(c1)NC(=O)C(CCC(=O)O)C2` (stereo not shown) [Example 231, 3-[7-(3-Guanidino-propoxy)-2-oxo-1,2,3,4-tetrahydro-quinolin-3-yl]-propionic Acid], the melting point was in the range of 157 to 159 °C. Also, the remaining activity at 30 µM in data set [1] worked out at 55.9%. Also, the remaining activity at 100 µM on αVβ3 integrin is 93%. Also, the remaining activity at 200 µM on αIIbβ3 integrin was determined as 78.3%.

Turning to `N=C(N)NCCCOc1ccc2cc(CC(=O)O)c(=O)n(Cc3ccccc3)c2c1` [Example 155, [1-Benzyl-7-(3-guanidino-propoxy)-2-oxo-1,2-dihydro-quinolin-3-yl]-acetic Acid], the melting point was 132 to 134 °C. Besides, the remaining activity at 200 µM on αIIbβ3 integrin worked out at 83.7%.

The compound `N=C(N)NCCOc1ccc2c(c1)NC(=O)C(CCC(=O)O)C2` (stereo not shown) [Example 230, 3-[7-(2-Guanidino-ethoxy)-2-oxo-1,2,3,4-tetrahydro-quinolin-3-yl]-propionic Acid] displayed a melting point of 193 to 196 °C. Also, the remaining activity at 100 µM at αVβ3 integrin was determined as 100%. Besides, the inhibition at 230 µM with osteoclasts (@ 230 μM) amounted to 15%. In addition, the remaining activity at 200 µM on αIIbβ3 integrin was determined as 95.2%.

With `CCn1c(=O)c(CC(=O)O)cc2ccc(OCCCNC(=N)N)cc21.O=C(O)C(F)(F)F` [Example 149, [1-Ethyl-7-(3-guanidino-propoxy)-2-oxo-1,2-dihydro-quinolin-3-yl]-acetic Acid Trifluoroacetate], the melting point is 131 °C. Besides, on αVβ3 integrin, the remaining activity at 20 µM was 96.3% and the remaining activity at 100 µM came to 71.5%. Also, at αIIbβ3 integrin, the remaining activity at 200 µM stood at 90.2%.

`N=C(N)NCCC=Cc1ccc2c(c1)NC(=O)C(CC(=O)O)C2.O=C(O)C(F)(F)F` (stereo not shown) [Example 112, [7-(4-Guanidino-but-1-enyl)-2-oxo-1,2,3,4-tetrahydro-quinolin-3-yl]-acetic Acid Trifluoroacetate] yielded a melting point of 173 to 176 °C. Moreover, the IC50 in data set [1] stood at 7 µM. Besides, on αVβ3 integrin, the concentration for half-maximal inhibition (IC50) worked out at 19.7 µM. Also, the remaining activity at 200 µM at αIIbβ3 integrin worked out at 80.4%.

For `N=C(N)NCCOc1ccc2cc(CCC(=O)O)c(=O)[nH]c2c1.O=[N+]([O-])O` [Example 247, 3-[7-(2-Guanidino-ethoxy)-2-oxo-1,2-dihydro-quinolin-3-yl]-propionic Acid Nitric Acid Salt], the melting point is 211 °C (dec.). Also, at αIIbβ3 integrin, the remaining activity at 200 µM was 100%.

Regarding `N=C(N)NCCCOc1ccc2[nH]c(=O)c(CC(=O)O)cc2c1` [Example 237, [6-(3-Guanidino-propoxy)-2-oxo-1,2-dihydro-quinolin-3-yl]-acetic Acid], the melting point is 207 to 212 °C (dec.). Further, the remaining activity at 30 µM in data set [1] was determined as 100%. Besides, at αVβ3 integrin, the remaining activity at 20 µM was determined as 86.2% and the remaining activity at 100 µM was 114%. Moreover, the remaining activity at 200 µM on αIIbβ3 integrin came out at 96.5%.

`N=C(N)NCCCCOc1ccc2c(c1)CC(CC(=O)O)C(=O)N2` (stereo not shown) (as salt: salt) [Example 229, [6-(4-Guanidino-butoxy)-2-oxo-1,2,3,4-tetrahydro-quinolin-3-yl]-acetic Acid] gave a melting point of 170 to 173 °C.

Compound `N=C(N)NCCCCCOc1cccc2c1NC(=O)C(CC(=O)O)C2` (stereo not shown) (as salt: salt) [Example 250, [8-(5-Guanidino-pentoxy)-2-oxo-1,2,3,4-tetrahydro-quinolin-3-yl]-acetic Acid] yielded a melting point of 126 to 131 °C.
